Measured values from patent publication EP0425902A1, “Use of isosorbide 2-mononitrate in the preparation of pharmaceutical compositions for treating angina pectoris” (ISCOFAR Sas di Paolo E. Ghirardi, priority 1989, dated 1991).
Where “and” joins values, the source holds several entries; their conditions need not be identical. Identical values can stand only once. Entries after “also recorded” stand apart in the source; their conditions may differ.

Columns and labels:
[1] = Clinical trials of tongue absorption administration on onset of anginal attack; conditions: human, in vivo
[2] = test system: isolated rabbit heart; experiment: Vasodilatory effect on isolated rabbit heart with vasopressin-induced spasm (coronary perfusion pressure)
Description: All nitroderivatives induce a tolerance phenomenon but the degree of the lack of the vasodilatory effect was lesser in the case of isosorbide 2-nitroderivative. […] Isolated rabbit hearts and aortic strips were used as experimental model to evaluate drugs acting on coronary resistance and vascular contractility.
Vasodilatory effect was evaluated on isolated rabbit heart in presence of vasopressin-induced spasm by using concentration of 10⁻⁵M of the tested compounds.

[3] = test system: rabbit aortic strips; experiment: Induction of nitrate tolerance in rabbit aortic strips preincubated with nitroderivative
[4] = Acute treatment by tongue absorption, pulmonary artery pressure by cardiac catheter; conditions: in vivo
[5] = Clinical trial, ergometer bicycle effort test before and after two months of chronic 2MN treatment; conditions: human, in vivo
[6] = Long-period stability of active principle in tablets
[7] = test system: cyclic GMP; experiment: Cyclic GMP accumulation in laboratory tests
Text: It has been furthermore shown through the laboratory tests that no relationship between the amount of the measured cyclic guanine mono-phosphate (GMP) and the extent of the inhibitory effect can be observed.
In our experiments, the development of nitrate tolerance seems to be related to cyclic GMP accumulation, being greater in the case of NTG, thus confirming that SH groups consumption is the molecular mechanism responsible for this phenomenon.

O=[N+]([O-])O[C@H]1CO[C@H]2[C@@H]1OC[C@H]2O [2MN, isosorbide 2-mononitrate]
effect on anginal attack [1]: able to prevent anginal attack or to cause its rapid regression; also recorded: Analogous results | activity in reducing coronary perfusion pressure relative to other nitroderivatives [2]: more active than 5MN and ISDN | degree of desensitization after induction of nitrate tolerance [3]: significantly lower | degree of tolerance induced [3]: lesser degree of tolerance | Activity commences after taking the drug [4]: 3 to 4 min | Activity lasts (average) [4]: 80 min | Commencement of activity [4]: 180 s and 250 s and 230 s and 160 s and 200 s and 210 s and 204.2 s | Max decrease in pulmonary artery pressure % [4]: 20% and 38% and 30% and 27% and 31% and 40% and 29% and 30.7% | Exercise time [5]: 8.6 ± 1.4 min and 8.9 ± 1.1 min | Max work tolerated (watt) [5]: 144±36 watt and 148±36 watt | S-T (mm) [5]: 1.5±0.7 mm and 1.8±0.9 mm | S-T Δ % [5]: -29 (P<0.05) % and -25 (P<0.05) % | anginal attacks, nitroglycerin consumption and arterial pressure [5]: noted reduction | tolerance after chronic treatment [5]: does not give rise to tolerance | loss of active principle in the pharmaceutical forms (tablets) in the long period [6]: minimal | cyclic GMP accumulation / increase [7]: lesser increase

O=[N+]([O-])OCC(CO[N+](=O)[O-])O[N+](=O)[O-] [NTG, nitroglycerin, reference compound]
inhibition at 10 µM ([2]; Oryctolagus cuniculus, isolated rabbit heart, vasopressin-induced spasm, 10⁻⁵M, read-out: reduce coronary spasm (coronary perfusion pressure, CPP)): 80% | cyclic GMP accumulation / increase [7]: greater
